From DBAASP
Values after ≈ are worked out from the molar mass of the structure shown. One block for each molecule: values may come before it.

Columns and labels:
Experiment in all cases: ≥ marks a high value that may be exact or a test limit, other limits are often not marked, values filed in µg/mL are converted to µM
[1] = tested on: Acinetobacter calcoaceticus
Staphylococcus aureus = tested on: Staphylococcus aureus
Streptococcus agalactiae = tested on: Streptococcus agalactiae
[2] = tested on: Xanthomonas axonopodis pv. glycines ISBF 327
Pseudomonas aeruginosa = tested on: Pseudomonas aeruginosa
Candida albicans = tested on: Candida albicans
[3] = tested on: Escherichia coli ATCC 25922
[4] = tested on: Enterobacter cloacae CGMCC 1.58
[5] = tested on: Candida albicans CMCC 98001
Bacillus cereus AS1.126 = tested on: Bacillus cereus AS1.126
[6] = tested on: Staphylococcus aureus AS1.72
[7] = tested on: Lactobacillus acidophilus CGMCC 1.1854
[8] = tested on: Klebsiella pneumoniae subsp. pneumoniae CGMCC 1.176
[9] = tested on: Pseudomonas aeruginosa CGMCC 1.860
[10] = tested on: Streptococcus salivarius CGMCC 1.2498
[11] = tested on: Enterococcus faecalis CGMCC 1.595
[12] = tested on: Klebsiella aerogenes CGMCC 1.876
[13] = tested on: Streptococcus sanguinis CGMCC 1.2497
[14] = tested on: Lactococcus lactis AS1.1690
[15] = tested on: Fusobacterium nucleatum CGMCC 1.2526
[16] = tested on: Enterococcus faecium CGMCC 1.2334
[17] = tested on: Streptococcus mutans CGMCC 1.2500
Escherichia coli AS1.349 = tested on: Escherichia coli AS1.349
[18] = tested on: Staphylococcus epidermidis
[19] = tested on: Salmonella enterica subsp. enterica serovar Paratyphi A
Listeria monocytogenes = tested on: Listeria monocytogenes
Escherichia coli = tested on: Escherichia coli
[20] = tested on: Staphylococcus aureus A172
[21] = tested on: Staphylococcus aureus A170
[22] = tested on: Staphylococcus aureus 007
Klebsiella aerogenes = tested on: Klebsiella aerogenes
[23] = tested on: Staphylococcus aureus ATCC 29213
Klebsiella pneumoniae = tested on: Klebsiella pneumoniae
Escherichia coli P4 = tested on: Escherichia coli P4
Serratia marcescens = tested on: Serratia marcescens
Enterobacter cloacae = tested on: Enterobacter cloacae
[24] = tested on: Staphylococcus aureus ATCC 25023
[25] = tested on: Acinetobacter baumannii CICC 22934
[26] = tested on: Proteus mirabilis CICC 22931
[27] = tested on: Listeria monocytogenes LO28
[28] = tested on: Cronobacter sakazakii DPC 6440
Staphylococcus aureus MR = tested on: Staphylococcus aureus MR
[29] = tested on: Enterococcus faecalis NCTC 12203
[30] = tested on: Enterococcus faecalis ATCC 29212
Escherichia coli UB1005 = tested on: Escherichia coli UB1005

SMILES: CC[C@H](C)[C@H](NC(=O)[C@H](C)NC(=O)[C@H](Cc1cnc[nH]1)NC(=O)[C@@H]1CCCN1C(=O)[C@@H](NC(=O)[C@H](CC(C)C)NC(=O)[C@H](CO)NC(=O)[C@H](CC(C)C)NC(=O)[C@@H](N)Cc1ccccc1)[C@@H](C)CC)C(=O)N[C@@H](CC(N)=O)C(=O)N[C@@H](C)C(=O)N[C@H](C(=O)N[C@@H](CO)C(=O)N[C@H](C(=O)N[C@@H](CC(C)C)C(=O)N[C@H](C(=O)N[C@@H](Cc1cnc[nH]1)C(=O)N[C@@H](Cc1cnc[nH]1)C(=O)N[C@@H](Cc1ccccc1)C(N)=O)C(C)C)[C@@H](C)O)C(C)C [FLSLIPHAINAVSTLVHHF]
MIC [1]: 3.7 µM (≈ 7.83 µg/mL)
MIC (Staphylococcus aureus): 7.6 µM (≈ 16.1 µg/mL)
MIC (Streptococcus agalactiae): 1.9 µM (≈ 4.02 µg/mL)
MIC [2]: ≥ 121 µM
MIC (Pseudomonas aeruginosa): 60.4 µM (≈ 128 µg/mL)
MIC (Candida albicans): 15.1 µM (≈ 31.9 µg/mL)
MIC [3]: 15 µM (≈ 31.7 µg/mL)

SMILES: CC[C@H](C)[C@H](N)C(=O)N[C@@H](CCCCN)C(=O)N[C@@H](CCCCN)C(=O)N[C@H](C(=O)N[C@H](C(=O)N[C@@H](CO)C(=O)N[C@@H](CCCCN)C(=O)N[C@H](C(=O)N[C@@H](CCCCN)C(=O)N[C@@H](CCCCN)C(=O)N[C@@H](CC(C)C)C(=O)N[C@@H](CC(C)C)C(N)=O)[C@@H](C)CC)C(C)C)[C@@H](C)CC [IKKIVSKIKKLL]
MIC [4]: 3.12 µM (≈ 4.4 µg/mL)
MIC [5]: 12.5 µM (≈ 17.6 µg/mL)
MIC (Bacillus cereus AS1.126): 3.12 µM (≈ 4.4 µg/mL)
MIC [6]: 3.12 µM (≈ 4.4 µg/mL)
MIC [7]: 25 µM (≈ 35.2 µg/mL)
MIC [8]: 6.25 µM (≈ 8.81 µg/mL)
MIC [9]: 3.12 µM (≈ 4.4 µg/mL)
MIC [10]: 6.25 µM (≈ 8.81 µg/mL)
MIC [11]: 6.25 µM (≈ 8.81 µg/mL)
MIC [12]: 3.12 µM (≈ 4.4 µg/mL)
MIC [13]: 3.13 µM (≈ 4.41 µg/mL)
MIC [14]: 3.12 µM (≈ 4.4 µg/mL)
MIC [15]: 18.8 µM (≈ 26.4 µg/mL)
MIC [16]: 6.25 µM (≈ 8.81 µg/mL)
MIC [17]: 12.5 µM (≈ 17.6 µg/mL)
MIC (Escherichia coli AS1.349): 3.12 µM (≈ 4.4 µg/mL)

SMILES: CC[C@H](C)[C@H](NC(=O)[C@@H]1CCCN1C(=O)[C@H](CC(C)C)NC(=O)[C@H](CC(C)C)NC(=O)[C@H](Cc1ccc(O)cc1)NC(=O)[C@H](CCCCN)NC(=O)[C@@H](N)CCCCN)C(=O)N[C@H](C(=O)NCC(=O)N[C@@H](CC(N)=O)C(=O)N[C@@H](CC(C)C)C(=O)N[C@@H](CC(C)C)C(=O)N[C@@H](CCCCN)C(=O)N[C@@H](CO)C(=O)N[C@@H](CC(C)C)C(=O)N[C@@H](CC(C)C)C(N)=O)C(C)C [KKYLLPIVGNLLKSLL]
MIC [18]: 3.86 µM (≈ 7 µg/mL)
MIC [19]: 11 µM (≈ 20 µg/mL)
MIC (Listeria monocytogenes): 5.52 µM (≈ 9.99 µg/mL)
MIC (Escherichia coli): 11 µM (≈ 20 µg/mL)
MIC [20]: 13.8 µM (≈ 25 µg/mL)
MIC [21]: 11 µM (≈ 20 µg/mL)
MIC [22]: 5.52 µM (≈ 9.99 µg/mL)

SMILES: CC[C@H](C)[C@H](NC(=O)[C@H](Cc1ccccc1)NC(=O)[C@H](CC(N)=O)NC(=O)[C@H](CCCCN)NC(=O)[C@H](CCCN=C(N)N)NC(=O)[C@H](C)NC(=O)[C@H](CCCCN)NC(=O)[C@H](Cc1c[nH]c2ccccc12)NC(=O)[C@@H](N)CCCCN)C(=O)N[C@@H](CCCCN)C(=O)NCC(=O)N[C@@H](CO)C(=O)N[C@@H](CO)C(=O)N[C@@H](CC(C)C)C(=O)NCC(=O)N[C@@H](Cc1c[nH]c2ccccc12)C(=O)N[C@@H](CC(C)C)C(=O)N[C@H](C(=O)N[C@@H](CCC(N)=O)C(=O)N[C@@H](CC(C)C)C(=O)N[C@@H](Cc1ccccc1)C(=O)N[C@@H](CCCN=C(N)N)C(=O)N[C@@H](CCCCN)C(=O)N[C@@H](CCCN=C(N)N)C(=O)O)[C@@H](C)CC [KWKARKNFIKGSSLGWLIQLFRKR]
MIC (Klebsiella aerogenes): 21.6 µM (≈ 64 µg/mL)
MIC (Escherichia coli): 15.3 µM (≈ 45.3 µg/mL)
MIC [23]: 21.6 µM (≈ 64 µg/mL)
MIC (Klebsiella pneumoniae): 15.3 µM (≈ 45.3 µg/mL)
MIC (Escherichia coli P4): 10.8 µM (≈ 32 µg/mL)
MIC (Serratia marcescens): ≥ 173 µM
MIC (Enterobacter cloacae): 15.3 µM (≈ 45.3 µg/mL)
MIC (Pseudomonas aeruginosa): 43.2 µM (≈ 128 µg/mL)
MIC [3]: 15.3 µM (≈ 45.3 µg/mL)

SMILES: CC(C)C[C@H](NC(=O)[C@H](CCCN=C(N)N)NC(=O)[C@H](CC(C)C)NC(=O)[C@H](CC(C)C)NC(=O)[C@H](CC(C)C)NC(=O)[C@H](CCCCN)NC(=O)[C@H](CC(C)C)NC(=O)[C@@H](N)CCCN=C(N)N)C(N)=O [RLKLLLRL]
MIC [24]: ≥ 125 µM

Results, then the molecule that gave them:

MIC [4]: ≥ 100 µM
MIC (Bacillus cereus AS1.126): 6.25 µM (≈ 13.8 µg/mL)
MIC [6]: 9.38 µM (≈ 20.7 µg/mL)
MIC [8]: ≥ 100 µM
MIC [25]: ≥ 100 µM
MIC [9]: ≥ 100 µM
MIC [26]: ≥ 100 µM
MIC [11]: 12.5 µM (≈ 27.6 µg/mL)
MIC [12]: ≥ 100 µM
MIC [14]: 18.8 µM (≈ 41.5 µg/mL)
MIC [16]: 12.5 µM (≈ 27.6 µg/mL)
MIC (Escherichia coli AS1.349): ≥ 100 µM
SMILES: CC(C)C[C@H](NC(=O)CNC(=O)[C@H](Cc1ccccc1)NC(=O)[C@H](CCCN=C(N)N)NC(=O)[C@H](CCCN=C(N)N)NC(=O)[C@H](CC(C)C)NC(=O)[C@H](Cc1cnc[nH]1)NC(=O)[C@H](CCCN=C(N)N)NC(=O)CNC(=O)[C@@H](NC(=O)[C@H](C)NC(=O)[C@@H](N)CO)C(C)C)C(=O)N[C@@H](CCCN=C(N)N)C(=O)N[C@@H](CCCCN)C(=O)N[C@@H](Cc1cnc[nH]1)C(=O)N[C@@H](CCCN=C(N)N)C(=O)N[C@@H](CCCCN)C(=O)N[C@@H](Cc1cnc[nH]1)C(=O)O [SAVGRHLRRFGLRKHRKH]

MIC [27]: ≥ 39.1 µM
MIC [28]: ≥ 156 µM
SMILES: CC[C@H](C)[C@H](NC(=O)[C@@H](N)Cc1c[nH]c2ccccc12)C(=O)N[C@@H](CCC(N)=O)C(=O)N1CCC[C@H]1C(=O)N[C@@H](C)C(=O)N[C@H](C(=O)N[C@@H](CCCCN)C(=O)N[C@H](C(=O)N[C@H](C(=O)N1CCC[C@H]1C(=O)N[C@@H](Cc1ccc(O)cc1)C(=O)N[C@H](C(=O)N[C@@H](CCCN=C(N)N)C(=O)N[C@@H](Cc1ccc(O)cc1)C(=O)N[C@@H](CC(C)C)C(=O)O)C(C)C)[C@@H](C)CC)C(C)C)[C@@H](C)O [WIQPATKVIPYVRYL]

MIC [18]: 0.182 µM (≈ 0.25 µg/mL)
MIC (Escherichia coli): 1.45 µM (≈ 2 µg/mL)
MIC [23]: 0.363 µM (≈ 0.5 µg/mL)
MIC (Staphylococcus aureus MR): 0.363 µM (≈ 0.5 µg/mL)
MIC [29]: 0.726 µM (≈ 0.999 µg/mL)
MIC [30]: 0.726 µM (≈ 0.999 µg/mL)
MIC (Escherichia coli UB1005): 2.91 µM (≈ 4 µg/mL)
MIC [3]: 1.45 µM (≈ 2 µg/mL)
SMILES: CC[C@H](C)[C@H](NC(=O)[C@H](CCCCN)NC(=O)[C@@H](N)Cc1c[nH]c2ccccc12)C(=O)N[C@H](C(=O)N[C@@H](Cc1ccccc1)C(=O)N[C@@H](Cc1c[nH]c2ccccc12)C(=O)N[C@@H](Cc1c[nH]c2ccccc12)C(=O)N[C@@H](CCCN=C(N)N)C(=O)N[C@@H](CCCN=C(N)N)C(N)=O)C(C)C [WKIVFWWRR]
